The nature of this data set: Temperature stress experiments: thermal stability of the solid forms, purity by HPLC. In kind it is physicochemical. The settings on record: for HPLC Purity Start: solid form before temperature stress; for HPLC Purity: solid. An excerpt:
Temperature Stress Experiments For the investigation of the thermal stability, the solid forms A, B and M are heated in open test tubes (l: 110 mm, d: 5 mm) or in test tubes closed by means of a glass stamp in an oil bath at temperatures and for a period of time as given in the Table. Subsequently, the purity of the remaining products is investigated by means of HPLC methods (column: LunaRP18 (25×0.46 cm); mobile phase: acetonitrile:methanol: 0.02M aq. ammonium acetate:triethylamine (55:5:40:0.05). (s): test tube with glass stamp

Counter-ions that a name gives are not always drawn.

As for `C=CC(=O)Nc1cc2c(Nc3ccc(F)c(Cl)c3)ncnc2cc1OCCCN1CCOCC1` [Form A, N-[4-(3-chloro-4-fluorophenylamino)-7-(3-morpholin-4-ylpropoxy)-quinazolin-6-yl]-acrylamide Dihydrochloride Form A], the “HPLC Purity Start” value (listed as A) was 99.28 rel %. In addition, the “HPLC Purity” value (16 hr, 100° C., then 8 hr, 150° C., (s): test tube with glass stamp, listed as A) is given as 23.45 (s) rel %; the “HPLC Purity” value (16 hr, 100° C., then 8 hr, 150° C., open test tube, listed as A) is 25.28 rel %; the “HPLC Purity” value (7 d, 80° C., (s): test tube with glass stamp, listed as A) is on record as 99.02 (s) rel %; the “HPLC Purity” value (7 d, 80° C., open test tube, listed as A) was 97.51 rel %.

As to `C=CC(=O)Nc1cc2c(Nc3ccc(F)c(Cl)c3)ncnc2cc1OCCCN1CCOCC1` [Form B, N-[4-(3-chloro-4-fluorophenylamino)-7-(3-morpholin-4-ylpropoxy)-quinazolin-6-yl]-acrylamide Dihydrochloride Form B], the “HPLC Purity Start” value (listed as B) stood at 99.77 rel %. Moreover, the “HPLC Purity” value by setting is: (16 hr, 100° C., then 8 hr, 150° C., (s): test tube with glass stamp, listed as B) 75.28 (s) rel %; (16 hr, 100° C., then 8 hr, 150° C., open test tube, listed as B) 75.32 rel %; (7 d, 80° C., (s): test tube with glass stamp, listed as B) 84.40 (s) rel %; (7 d, 80° C., open test tube, listed as B) 89.39 rel %.

With `C=CC(=O)Nc1cc2c(Nc3ccc(F)c(Cl)c3)ncnc2cc1OCCCN1CCOCC1` [Form M, N-[4-(3-chloro-4-fluorophenylamino)-7-(3-morpholin-4-ylpropoxy)-quinazolin-6-yl]-acrylamide Dihydrochloride Form M], the “stability towards the heating of the solid substance” value (heating at 80° C. or 150° C., in comparison to the forms A or B) was “more stable form”. Besides, the “HPLC Purity Start” value (listed as M) is listed as 99.49 rel %. Besides, the “HPLC Purity” value (16 hr, 100° C., then 8 hr, 150° C., (s): test tube with glass stamp, listed as M) is 99.43 (s) rel %; the “HPLC Purity” value (16 hr, 100° C., then 8 hr, 150° C., open test tube, listed as M) is reported as 99.43 rel %; the “HPLC Purity” value (8 d, 80° C., (s): test tube with glass stamp) is 99.61 (s) rel %; the “HPLC Purity” value (8 d, 80° C., open test tube) is recorded as 99.62 rel %.

For the origin of these results see patent publication US20040034022A1, “Polymorphic forms/hydrates of n-[4-(3-chloro-4-fluorophenylamino)-7-(3-morpholin-4-ylpropoxy)-quinazolin-6-yl]-acrylamide dihydrochloride” (priority 2000, published 2004).
